Measurements as given in article PMC10714399, “Open Source Antibiotics: Simple Diarylimidazoles Are Potent against Methicillin-Resistant Staphylococcus aureus” (ACS Infectious Diseases, 2023).
≈ marks a conversion by molar mass, not a printed value.

System: Staphylococcus aureus NCTC 13373 (mecA-positive; methicillin-resistant)
Assay: In vitro antibacterial activity, MIC (UCL School of Pharmacy assay), MRSA
Assay type: cell-based
Details: Staphylococcus aureus, 16 h; read-out: MRSA MIC
Summary of the method: (§1)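 Strains: MRSA NCTC 13373, MSSA ATCC 25923, vanA E. faecalis ATCC 51299. Overnight agar growth suspended in PBS, A600 0.1, diluted 1:100 into isosensitest broth; 2-fold compound dilutions 32–0.03 μg/mL, ≤2% DMSO. Vancomycin QC.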

MIC | SMILES
2 µg/mL (≈ 5.55 µM) | CC(C)CN(c1ccc(F)cc1)c1c(-c2ccccn2)nc2ccccn12 [compound 983]

Same assay, conditions: Staphylococcus aureus, UCL; read-out: MRSA MIC (UCL)

MIC | SMILES
> 32 µg/mL | c1cncc(-c2nc3n(c2-c2ccc4occc4c2)CCC3)c1 [OSA_000861]
> 32 µg/mL | c1cc(-c2nc3n(c2-c2ccc4occc4c2)CCC3)ccn1 [OSA_000862]
> 32 µg/mL | c1ccc(-c2nc3n(c2-c2ccc4occc4c2)CCC3)cc1 [OSA_000869]
4 µg/mL (≈ 12.2 µM) | c1ccc(-c2nc3ccccn3c2-c2ccc3sccc3c2)nc1 [OSA_000871]

Same assay, conditions: Staphylococcus aureus; read-out: MRSA MIC

MIC | SMILES
2 µg/mL (≈ 5.58 µM) | Fc1ccc(N(CC2CC2)c2c(-c3ccccn3)nc3ccccn23)cc1 [compound 979]
2 µg/mL (≈ 5.55 µM) | CC(C)CN(c1ccc(F)cc1)c1c(-c2ccccn2)nc2ccccn12 [compound 983]

System: S. aureus ATCC 25923 (methicillin-susceptible)
Assay: In vitro antibacterial activity, MIC (UCL), MSSA
Assay type: cell-based, Staphylococcus aureus
Details: Staphylococcus aureus; read-out: MSSA MIC
Summary of the method: as §1

MIC | SMILES
2 µg/mL (≈ 5.58 µM) | Fc1ccc(N(CC2CC2)c2c(-c3ccccn3)nc3ccccn23)cc1 [compound 979]
4 µg/mL (≈ 11.1 µM) | CC(C)CN(c1ccc(F)cc1)c1c(-c2ccccn2)nc2ccccn12 [compound 983]

System: Enterococcus faecalis ATCC 51299 (vanA-positive; vancomycin-resistant)
Assay: In vitro antibacterial activity, MIC (UCL), VRE
Assay type: cell-based
Details: not given
Summary of the method: as §1

VRE MIC | SMILES
4 µg/mL | Fc1ccc(N(CC2CC2)c2c(-c3ccccn3)nc3ccccn23)cc1 [compound 979]

Same assay, conditions: read-out: VRE MIC

MIC | SMILES
4 µg/mL (≈ 11.2 µM) | Fc1ccc(N(CC2CC2)c2c(-c3ccccn3)nc3ccccn23)cc1 [compound 979]
8 µg/mL (≈ 22.2 µM) | CC(C)CN(c1ccc(F)cc1)c1c(-c2ccccn2)nc2ccccn12 [compound 983]

Same assay, conditions: read-out: VRE MIC (UCL)

MIC | SMILES
> 32 µg/mL | c1cncc(-c2nc3n(c2-c2ccc4occc4c2)CCC3)c1 [OSA_000861]
> 32 µg/mL | c1cc(-c2nc3n(c2-c2ccc4occc4c2)CCC3)ccn1 [OSA_000862]
> 32 µg/mL | c1ccc(-c2nc3n(c2-c2ccc4occc4c2)CCC3)cc1 [OSA_000869]
8 µg/mL (≈ 24.4 µM) | c1ccc(-c2nc3ccccn3c2-c2ccc3sccc3c2)nc1 [OSA_000871]

System: not listed separately
Assay: Aqueous solubility
Assay type: physicochemical
Details: thermodynamic from solid; NEU; read-out: Aqueous Solubility (NEU)

solubility | SMILES
344 µM (≈ 104 µg/mL) | c1cncc(-c2nc3n(c2-c2ccc4occc4c2)CCC3)c1 [OSA_000861]
89 µM (≈ 26.8 µg/mL) | c1cc(-c2nc3n(c2-c2ccc4occc4c2)CCC3)ccn1 [OSA_000862]
21 µM (≈ 6.31 µg/mL) | c1ccc(-c2nc3n(c2-c2ccc4occc4c2)CCC3)cc1 [OSA_000869]
6 µM (≈ 1.96 µg/mL) | c1ccc(-c2nc3ccccn3c2-c2ccc3sccc3c2)nc1 [OSA_000871]

Same assay, conditions: thermodynamic from solid; read-out: Aqueous Solubility

solubility | SMILES
8 µM (≈ 2.88 µg/mL) | CC(C)CN(c1ccc(F)cc1)c1c(-c2ccccn2)nc2ccccn12 [compound 983]

System: not listed separately
Assay: LogD7.4 (Chrom Log D)
Assay type: physicochemical
Details: chromatographic system (Chrom Log D); pH 7.4, NEU; read-out: LogD 7.4 (NEU)
Excerpt: To guide our initial SAR exploration work, we obtained liver microsomal intrinsic clearance data for 5 of the 18 compounds assayed by CO-ADD (Supporting Information - CDCO Report and Supporting Information - Biology). We then acquired intrinsic clearance (CLint), plasma protein binding (PPB), and solubility data on further compounds throughout the SAR campaign (Supporting Information - Biology, Tables S3 and S4). […] The more polar compounds (lower LogD) had reduced PPB and were more metabolically stable.
Table S4. ADME and Pharmacokinetics: compounds only appearing in the Supplementary […]
MRSA Aqueous HLM CLint Rat Hep CLint
Cmpd MIC Solubility Human PPB (%) (µL/min/mg (µL/min/10x6 LogD7.4
(µg/mL) (µM) protein) cells)
(§2) ADME and toxicity for compounds were measured according to procedures outlined in the manuscript submitted in parallel to this one;2 other procedures were used for those compounds analysed by Monash University (in vitro ADME) or UCL (toxicity), both described in the main

chromatographic logD | SMILES
3.2 | c1cncc(-c2nc3n(c2-c2ccc4occc4c2)CCC3)c1 [OSA_000861]
3.2 | c1cc(-c2nc3n(c2-c2ccc4occc4c2)CCC3)ccn1 [OSA_000862]
4.2 | c1ccc(-c2nc3n(c2-c2ccc4occc4c2)CCC3)cc1 [OSA_000869]
3.3 | c1ccc(-c2nc3ccccn3c2-c2ccc3sccc3c2)nc1 [OSA_000871]

System: not listed separately
Assay: Human plasma protein binding (PPB)
Assay type: in vitro ADME
Details: human, plasma, human plasma, NEU; read-out: Human PPB (NEU) (converted)

fraction unbound | SMILES
0.015 | c1cncc(-c2nc3n(c2-c2ccc4occc4c2)CCC3)c1 [OSA_000861]
0.017 | c1cc(-c2nc3n(c2-c2ccc4occc4c2)CCC3)ccn1 [OSA_000862]
0.0031 | c1ccc(-c2nc3n(c2-c2ccc4occc4c2)CCC3)cc1 [OSA_000869]
0.0074 | c1ccc(-c2nc3ccccn3c2-c2ccc3sccc3c2)nc1 [OSA_000871]

Same assay, conditions: human, plasma; read-out: Human PPB (converted)

fraction unbound | SMILES
0.004 | CC(C)CN(c1ccc(F)cc1)c1c(-c2ccccn2)nc2ccccn12 [compound 983]

System: not listed separately
Assay: Human liver microsome intrinsic clearance
Assay type: in vitro ADME
Details: human liver microsomes, NEU; read-out: HLM CLint (NEU)

microsomal CLint | SMILES
35.5 µL/min/mg | c1cncc(-c2nc3n(c2-c2ccc4occc4c2)CCC3)c1 [OSA_000861]
36.8 µL/min/mg | c1cc(-c2nc3n(c2-c2ccc4occc4c2)CCC3)ccn1 [OSA_000862]
224 µL/min/mg | c1ccc(-c2nc3n(c2-c2ccc4occc4c2)CCC3)cc1 [OSA_000869]
105 µL/min/mg | c1ccc(-c2nc3ccccn3c2-c2ccc3sccc3c2)nc1 [OSA_000871]

System: not listed separately
Assay: Rat hepatocyte intrinsic clearance
Assay type: in vitro ADME
Details: rat hepatocytes, NEU; read-out: Rat Hep CLint (NEU)

hepatocyte CLint | SMILES
40.8 µL/min/1e6 cells | c1cncc(-c2nc3n(c2-c2ccc4occc4c2)CCC3)c1 [OSA_000861]
44.5 µL/min/1e6 cells | c1cc(-c2nc3n(c2-c2ccc4occc4c2)CCC3)ccn1 [OSA_000862]
34.5 µL/min/1e6 cells | c1ccc(-c2nc3n(c2-c2ccc4occc4c2)CCC3)cc1 [OSA_000869]
> 300 µL/min/1e6 cells | c1ccc(-c2nc3ccccn3c2-c2ccc3sccc3c2)nc1 [OSA_000871]

Same assay, conditions: rat, hepatocytes; Figure 4; read-out: Rat Hep CLint

hepatocyte CLint | SMILES
234 µL/min/1e6 cells | CC(C)CN(c1ccc(F)cc1)c1c(-c2ccccn2)nc2ccccn12 [compound 983]

System: MRC-5SV2 (human lung fibroblast cell line)
Assay: Toxicity against MRC-5SV2
Assay type: cell-based
Details: not given
Procedure: as §2

SMILES | MRC5 TC50
Fc1ccc(N(CC2CC2)c2c(-c3ccccn3)nc3ccccn23)cc1 [compound 979] | 2.8 µg/mL
CC(C)CN(c1ccc(F)cc1)c1c(-c2ccccn2)nc2ccccn12 [compound 983] | 19.5 µg/mL

System: PMM (primary mouse macrophages)
Assay: Toxicity against PMM
Assay type: cell-based
Details: not given
Procedure: as §2

SMILES | PMM TC50
Fc1ccc(N(CC2CC2)c2c(-c3ccccn3)nc3ccccn23)cc1 [compound 979] | 1.4 µg/mL
CC(C)CN(c1ccc(F)cc1)c1c(-c2ccccn2)nc2ccccn12 [compound 983] | 8.3 µg/mL

System: not listed separately
Assay: HEK293 toxicity, 96-well dose-response (UCL; MTT or resazurin, with or without recovery)
Assay type: cell-based, human
Details: human, HEK293 cells; read-out: HEK293 CC50
Procedure: (§3) The importance of balancing potency vs MRSA and cytotoxicity led us to examine a subset of compounds more thoroughly for toxicity against human embryonic kidney cell line HEK293. […] Dmax is a parameter that quantifies toxicity at the highest tested concentration (32 μg/mL for all compounds), calculated as reciprocal percentage of viable cells (100 – viability%), where cells either were allowed to recover or viability was measured immediately after treatment. […] Our efforts focused on trying to replicate the original toxicity experiments (by CO-ADD) with tamoxifen using a protocol modified for use with 96-well plates. Given the variability of protocols and results in the literature,[28] it was important to compare with a standard protocol we have reliably used in our own laboratories.[29]−[33] […] Truly “non-toxic” compounds might be expected to show Dmax < 50% for all experiment variations, e.g., 861. […] A large spread of Dmax values comparing recovery and non-recovery conditions larger than 20% is perhaps indicative of a mechanism of toxicity that persists beyond exposure, i.e., cytotoxic compounds that continue to induce toxicity as cells recover and restart dividing, for example, compounds 865, 870, 871, 980, and 981. […] This variability could be driven by interference of the compounds with the fluorescence readout or resorufin build-up as previously described.[27]
(§4) HEK293 cells (ATCC, UK) at passage 32 were a kind gift from Dr. Ben Allsop from the Translational Research Office at University College London. Cells were tested for mycoplasma using a MycoAlert Detection Kit (Lonza, Switzerland) as per manufacturer instructions, frozen stocks were stored in liquid nitrogen, and cells were re-tested whenever a new aliquot was thawed.
(§5) Cells were maintained in DMEM (Sigma-Aldrich, UK) supplemented with 10% heat-inactivated FBS (Sigma-Aldrich, UK), 1% GlutaMax (ThermoFisher, UK), and 1% sodium pyruvate (Lonza, UK) without antibiotics in an incubator at 37 °C and 5% CO2. Media was changed every 2 days, and cells were passaged every 3–4 days at a subcultivation ratio of 1:10, by detaching the cells with phenol-free TrypLE Express (ThermoFisher, UK), after washing with HBSS Ca^2+/Mg^2+ (ThermoFisher, UK). Up to 55 passages were used throughout the experiments.
(§6) (a) Cell seeding: At subculture, a dilute solution of cells was counted using Trypan Blue (Sigma-Aldrich, UK) and a hemocytometer. Cells were further diluted to 7000 or 50 000 cells/mL for experiments.
(§7) For recovery experiments, 700 cells (100 μL) were seeded in 96-well plates and incubated for 48 h while cells reached exponential phase.
(§8) For non-recovery experiments, 5000 cells (100 μL) were seeded in 96-well plates and incubated for 48 h while cells reached confluence. This is the same number of cells as per the CO-ADD protocol where 384-well plates were used, but we extended the growth time to 48 h to produce a similar confluency.
(§9) Stock solutions were diluted 100 times (to 1% DMSO) to 32 μg/mL in full medium (vortexed briefly) and then serially diluted using a digital pipet (Explorer, Eppendorf, Germany) at a dilution factor of 2 to a final concentration of […].
(§10) (c) Dosing experiments: At the specified time after seeding, media was removed from cells, cells were washed with HBSS Ca^2+/Mg^2+ (100 μL), and 100 μL of diluted compounds were added as per Supporting Information - Biology, Figure S4, and incubated for 24 h.
(§11) After treatment, solutions were removed, and cells were washed with HBSS Ca^2+/Mg^2+. For non-recovery experiments, viability was determined immediately as described below.
(§12) For recovery experiments, fresh media was added to plates (100 μL) and cells were returned to the incubator for another 72 h, after which viability was recorded as described below.
(§13) i. MTT assay: 3-[4,5-Dimethylthiazol-2-yl]-2,5-diphenyltetrazolium bromide (MTT) (Sigma-Aldrich, UK) was dissolved in sterile PBS at 5 mg/mL with sonication (20 min), protected from light. […]

SMILES | CC50 at 24 h
c1cncc(-c2nc3n(c2-c2ccc4occc4c2)CCC3)c1 [OSA_000861] | > 32 µg/mL
c1cc(-c2nc3n(c2-c2ccc4occc4c2)CCC3)ccn1 [OSA_000862] | > 32 µg/mL
c1ccc(-c2nc3n(c2-c2ccc4occc4c2)CCC3)cc1 [OSA_000869] | 13.7 µg/mL (≈ 45.6 µM)
c1ccc(-c2nc3ccccn3c2-c2ccc3sccc3c2)nc1 [OSA_000871] | 5.5 µg/mL (≈ 16.8 µM)

System: HEK293 cells
Assay: as above
Assay type: cell-based, human
Details: 32 μg/mL
Procedure: as §3, §4, §5, §6, §7, §8, §9, §10, §11, §12, §13

SMILES | spread of Dmax values comparing recovery and non-recovery conditions
Fc1ccc(N(CC2CC2)c2c(-c3ccccn3)nc3ccccn23)cc1 [compound 979] | small difference
CC(C)CN(c1ccc(F)cc1)c1c(-c2ccccn2)nc2ccccn12 [compound 983] | small difference
